This is an account of results in EP0506748B1, “AMINO ACIDS, PEPTIDES OR DERIVATIVES THEREOF COUPLED TO FATS” (COMMONWEALTH SCIENTIFIC AND INDUSTRIAL RESEARCH ORGANISATION, priority 1989, dated 1991).

One data set deals with U937 cells. Kind of data set: 3H-thymidine incorporation (mitogenic effect) in U937 cells. The following applies: for Thymidine incorporation of the U937 cells: U937 human monocyte-like histiocytic lymphoma, result in words, relative to control or to Z-Ala-TRIS-Tripalmitate. Format: cell-based, human. How it is done: (§1) ^3H-thymidine incorporation experiments were carried out in Linbro-Titertek microtitre plates (Flow Laboratories, Inc., U.S.A.) following the method of L. Bradley in "Selected Methods of Cellular Immunology (1980) Eds. B.B. Mishell and S.M. Shiigi; Publisher. W.H. Freeman and Co., U.S.A. pp156. The tests were carried out externally by Dr. D. Rathjen of Peptide Technology Ltd. Dee Why, N.S.W.
(§2) Cell lines tested were:- • 1. RD10; a B-cell lymphoma (obtained from the Centre for Immunology, Sydney University, Sydney, NSW. • 2. U937; a human monocyte-like3 histiocytic lymphoma (source: American Tissue Culture Collection).
(§3) RD10 cells (at a cell density 5x10^s/ml, 100 ul/well) were cultured for 20 hours at 37°C with 5% C02 in RPMI 1640 medium, supplemented with 10% Fetal Calf. Serum. Samples to be tested were mixed and sonicated with this medium at a concentration of 5000, 500, 50 and 5 ug/ml and 100 ul aliquots added to the cells. The cells were pulsed with 0.5 uCi/well of ^3H-thymidine and the plates incubated for four more hours before harvesting (Titertek Skatron harvester, Lier, Norway). Incorporated radioactivity was measured by liquid scintillation counting. All assays were performed in triplicate.

A further data set has as its system RD10 cells. Description: 3H-thymidine incorporation (mitogenic effect) in RD10 cells. The following applies: RD10 B-cell lymphoma. Format: cell-based. How it is done: as §1, §2, §3
Another data set concerns the target T1, trypsin (Bos taurus, UniProt P00760).
T1 sequence (P00760 24-246): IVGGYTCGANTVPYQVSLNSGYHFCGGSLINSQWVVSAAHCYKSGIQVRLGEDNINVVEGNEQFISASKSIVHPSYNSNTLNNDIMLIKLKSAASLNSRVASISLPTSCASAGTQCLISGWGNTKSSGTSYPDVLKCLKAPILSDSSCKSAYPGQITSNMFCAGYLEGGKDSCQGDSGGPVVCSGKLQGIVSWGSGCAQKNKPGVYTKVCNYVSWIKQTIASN
Description: Protease treatment: digestion with trypsin, followed by HPLC. The following applies: TPCK trypsin, enzyme/substrate ratio 1:50, 0.2 M ammonium hydrogen carbonate, 37°C; product Z-Leu-Arg-OH. Format: biochemical. On the procedure: Z-Gly-TRIS and Z-Ala-TRIS were incubated with papain, and Z-Leu-Arg-TRIS with trypsin, to test that the action of proteolytic enzymes could regenerate the starting compounds Z-Gly-OH, Z-Ala-OH and Z-Leu-Arg-OH respectively.
• a) Papain. Z-Ala-TRIS in 50 mmolar phosphate buffer pH 6.5 (650 ul) , 20 mM ethylene-diamine-tetraacetic acid (100 ul) and water to 1 ml. Activated papain (5mg/ml) was added to a final enzyme/substrate ratio of 1:50. The reaction was followed by HPLC on C18 reverse phase columns and the hydrolysis product identified by co-chromatography with standards. Blanks were incubated as above using water instead of enzyme solution. • b) Trypsin. Z-Leu-Arg-TRIS was incubated at a concentration between 2 and 10 mg/ml in 0.2 M ammonium hydrogen carbonate. Freshly prepared TPCK trypsin (1 mg/ml in water) was added to the solution giving a final enzyme/substrate ratio of 1:50. Samples were incubated at 37°C and aliquots examined by reverse phase HPLC. Additional amounts of enzyme were added as required.

Regarding `CCCCCCCCCCCCCCCC(=O)OCC(COC(=O)CCCCCCCCCCCCCCC)(COC(=O)CCCCCCCCCCCCCCC)NC(=O)C(C)N` (stereo not drawn) [Ala-TRIS-Tripalmitate, Ala-TRIS-TRIPALMITATE], the “Thymidine incorporation of the U937 cells” value in the data set with U937 cells is reported as “slightly diminished responses”. In the data set with RD10 cells (result in words), the “^3H-thymidine uptake by RD10 cells, response compared with Z-Ala-TRIS-Tripalmitate” value was “slightly diminished response”.
Take `CCCCCCCCCCCCCCCC(=O)OCC(COC(=O)CCCCCCCCCCCCCCC)(COC(=O)CCCCCCCCCCCCCCC)NC(=O)C(C)NC(=O)OCc1ccccc1` (stereo not drawn) [Z-Ala-TRIS-Tripalmitate, Z-Ala-TRIS-TRIPALMITATE]: the “Thymidine incorporation of the U937 cells” value in the data set with U937 cells is recorded as “close to control”. For the same molecule, the “cytotoxic effects in U937 cells” value in the data set with U937 cells (at higher concentrations, from thymidine incorporation) is given as “slight cytotoxic effects”. For the same molecule, the “^3H-thymidine uptake by RD10 cells, increase in cell proliferation compared to control” value with RD10 cells (samples at 5000, 500, 50 and 5 ug/ml, 20 hours culture, 4 hours pulse, triplicate) stood at 3.4 fold.
As to `CC(C)C[C@H](NC(=O)OCc1ccccc1)C(=O)N[C@@H](CCCNC(=N)N)C(=O)NC(CO)(CO)CO` [Z-Leu-Arg-TRIS], the hydrolysis with trypsin entry at trypsin was “slowly”.
